Patent US11293023B2, “Tunable endogenous protein degradation” (Dana-Farber Cancer Institute, Inc., priority 2015, dated 2022)

Columns and labels:
Format in all cases: cell-based
[1] = target: T1, FKBP* (FKBP12 F36V), HA-tagged (Homo sapiens, UniProt P62942, F37V); assay: Immunoblot of FKBP* degradation in 293FT cells (CRBN-WT or CRBN−/−); conditions: for degradation of FKBP*: 100 nM
T1 construct: expressed in transfected cells; host or cells: 293FT cells (CRBN-WT or CRBN-/-)
Description: (§1) 293FT cells (CRBN-WT or CRBN−/−) expressing either HA-tagged FKBP12WT or FKBP* were treated with indicated concentrations of dFKBP7 for 4 hours.
(§2) Isogenic 293FT cells (CRBN-WT or CRBN−/−) expressing either FKBP12WT or FKBP* were treated with 100 nM of either dFKBP7 or dFKBP13 for 4 hours.
Isogenic 293FT cells (CRBN-WT or CRBN−/−) expressing HA-tagged FKBP* were treated with the indicated dose of dFKBP13 for 4 hours.
(§3) 293FT cells (CRBN-WT) expressing FKBP* were pretreated with 1 uM Carfilzomib (proteasome inhibitor), 0.5 uM MLN4924 (neddylation inhibitor), and 10 uM Lenalidomide (CRBN binding ligand) for two hours prior to a 4 hour treatment with dFKBP13.
The dTAG is predicated on the selectivity of FKBP* specific ligands over endogenous, wild type FKBP. In 293T cells expressing wild type FKBP12 or FKBP*, dFKBP7 induces targeted degradation only in FKBP* expressing cells. […] 293FT cells (CRBN-WT or CRBN−/−) expressing either HA-tagged FKBP12WT or FKBP* were treated with indicated concentrations of dFKBP7 for 4 hours.
In 293T cells expressing wild type FKBP12 or FKBP*, treatment with dFKBP7 and dFKBP13 induces targeted degradation only in FKBP* expressing cells. Isogenic 293FT cells (CRBN-WT or CRBN−/−) were engineered to expressed either FKBP12WT or FKBP*. Cells were treated with 100 nM of either dFKBP7 or dFKBP13 for 4 hours before lysates were prepared for western immunoblot analysis.
In an effort to define the optimal concentration of dFKB13 heterobifunctional compound to induce degradation of FKBP*, degradation was measured upon treatment with increasing concentrations of dFKBP13. Isogenic 293FT cells (CRBN-WT or CRBN−/−) were engineered to expressed HA-tagged FKBP*. Cells were treated with the indicated dose of dFKBP13 for 4 hours before lysates were prepared for western immunoblot analysis.
as §3, with “were engineered to express FKBP*. Cells” for “expressing FKBP*”, “dFKBP13. Lysates were prepared and western immunoblot analysis performed.” for “dFKBP13.”

[2] = system: dTAG-KRAS alleles (WT, G12C, G12D, G12V, G13D, Q61L, Q61R); assay: Immunoblot of dTAG-KRAS WT and mutant alleles in NIH3T3 cells; conditions: 1 uM, 24 hours
Description: FIG. 16 is an immunoblot of NIH3T3 cells expressing KRAS alleles either WT or mutant forms of amino acid glycine 12 (G12C, G12D, and G12V) treated with 1 uM of dFKBP13 for 24 hours.
FIG. 17 is an immunoblot of NIH3T3 cells expressing either WT or mutant KRAS alleles (G13D, Q61L, and Q61R) treated with 1 uM of dFKBP13 for 24 hours.
(§4) The dFKBP13 heterobifunctional compound potently degrades dTAG-KRAS mutant alleles. NIH3T3 cells were engineered to express KRAS alleles either WT or mutant forms of amino acid glycine 12 (G12C, G12D, and G12V). Western blotting of NIH3T3 cells expressing dTAG fused to the N-terminus of KRAS alleles were treated with 1 uM of dFKBP13 for 24 hours. Cells were harvested and immunoblotted to measure degradation of dTAG-KRAS and downstream surrogates of KRAS signaling (e.g. pMEK and pAKT).
as §4, with “express” for “express KRAS alleles”, “KRAS alleles (G13D, Q61L,” for “forms of amino acid glycine 12 (G12C, G12D,”, “Q61R).” for “G12V).”

[3] = system: NIH3T3 cells expressing FKBP*-KRASG12V; assay: Phase contrast imaging of NIH3T3 cells expressing dTAG-KRAS; conditions: NIH3T3 overexpressing dTAG-KRAS, 24 hours
Description: FIG. 18A, FIG. 18B, FIG. 18C, and FIG. 18D are panels of phase contrast images of control NIH3T3 cells or NIH3T3 expressing FKBP* fused to the N-terminus of KRASG12V treated with DMSO of dFKBP13 for 24 hours.

FKBP12WT = target: T2, FKBP12WT (Homo sapiens, UniProt P62942); assay: Immunoblot of wild type FKBP12 in 293FT cells (selectivity control); conditions: 293FT CRBN-WT or CRBN−/−, indicated concentrations, 4 hours
T2 construct: expressed in transfected cells; host or cells: 293FT cells (CRBN-WT or CRBN-/-)
Description: as §1, §2
The dTAG is predicated on the selectivity of FKBP* specific ligands over endogenous, wild type FKBP. […] 293FT cells (CRBN-WT or CRBN−/−) expressing either HA-tagged FKBP12WT or FKBP* were treated with indicated concentrations of dFKBP7 for 4 hours.
Isogenic 293FT cells (CRBN-WT or CRBN−/−) were engineered to expressed either FKBP12WT or FKBP*. Cells were treated with 100 nM of either dFKBP7 or dFKBP13 for 4 hours before lysates were prepared for western immunoblot analysis.

FKBP* fused to Nluc = target: T3, FKBP* fused to Nluc (Homo sapiens, UniProt P62942+Q96SW2, F37V); assay: Nluc/Fluc luciferase signal ratio assay of FKBP* degradation in 293FT cells; conditions: wild type or CRBN−/− 293FT cells, indicated concentrations, 4 hours
T3 construct: expressed in transfected cells; host or cells: 293FT cells (wild type or CRBN-/-)
Description: FIG. 5A and FIG. 5B are graphs measuring the activity of a panel of dFKBP heterobifunctional compounds in cells expressing FKBP* fused to Nluc. Degradation of FKBP* is measured as a signal ration (Nluc/Fluc) between NANOluc and firefly luciferase from the same multicistronic transcript in wild type (FIG. 7A) or CRBN−/− ([…]) 293FT cells treated with indicated concentrations of dFKBPs for 4 hours. A decrease in the signal ratio indicates FKBP* (Nluc) degradation.
In an effort to identify potent and selective dFKPB heterobifunctional compounds, high throughput measurements of targeted FKBP* degradation were measured by surrogate levels of luciferase. Here, FKBP* is exogenously expressed as a multicistronic transcript with two types of luciferase: nano luciferase (NLuc) and firefly luciferase (FLuc) that allow for cell normalized quantification of FKBP* protein levels. Degradation of FKBP* is measured as a signal ration (Nluc/Fluc) in wild type (FIG. 4A) or CRBN−/− (FIG. 4B) 293FT cells treated with indicated concentrations of dFKBPs for 4 hours.

[4] = 293FT CRBN-WT or CRBN−/−, 4 hours

T1 sequence (P62942 2-108 F37V limits assumed): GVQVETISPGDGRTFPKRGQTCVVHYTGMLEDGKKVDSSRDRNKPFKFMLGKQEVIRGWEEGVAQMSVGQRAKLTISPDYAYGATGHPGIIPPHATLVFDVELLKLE
T2 sequence (P62942 whole entry): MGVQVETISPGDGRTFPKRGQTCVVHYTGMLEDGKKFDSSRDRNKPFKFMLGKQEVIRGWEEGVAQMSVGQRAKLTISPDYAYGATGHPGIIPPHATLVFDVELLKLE
T3 sequence (P62942 2-108 F37V limits assumed): as the sequence (P62942 2-108 F37V limits assumed) above
T3 sequence (Q96SW2 whole entry, the tested form may be a part): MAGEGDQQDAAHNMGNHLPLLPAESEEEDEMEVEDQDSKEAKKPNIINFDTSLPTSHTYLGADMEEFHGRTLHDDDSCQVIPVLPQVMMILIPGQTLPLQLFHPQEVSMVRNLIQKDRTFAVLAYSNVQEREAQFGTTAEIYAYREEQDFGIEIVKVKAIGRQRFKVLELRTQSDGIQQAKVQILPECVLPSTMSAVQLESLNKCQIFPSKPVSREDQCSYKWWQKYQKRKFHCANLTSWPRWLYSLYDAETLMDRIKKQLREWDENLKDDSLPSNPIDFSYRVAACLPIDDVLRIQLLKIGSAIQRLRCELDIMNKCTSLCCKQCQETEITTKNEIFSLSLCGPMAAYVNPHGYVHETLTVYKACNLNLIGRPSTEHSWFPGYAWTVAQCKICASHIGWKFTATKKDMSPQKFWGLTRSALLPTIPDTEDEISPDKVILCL
T3 sequence (Q16531 whole entry partner, the tested form may be a part): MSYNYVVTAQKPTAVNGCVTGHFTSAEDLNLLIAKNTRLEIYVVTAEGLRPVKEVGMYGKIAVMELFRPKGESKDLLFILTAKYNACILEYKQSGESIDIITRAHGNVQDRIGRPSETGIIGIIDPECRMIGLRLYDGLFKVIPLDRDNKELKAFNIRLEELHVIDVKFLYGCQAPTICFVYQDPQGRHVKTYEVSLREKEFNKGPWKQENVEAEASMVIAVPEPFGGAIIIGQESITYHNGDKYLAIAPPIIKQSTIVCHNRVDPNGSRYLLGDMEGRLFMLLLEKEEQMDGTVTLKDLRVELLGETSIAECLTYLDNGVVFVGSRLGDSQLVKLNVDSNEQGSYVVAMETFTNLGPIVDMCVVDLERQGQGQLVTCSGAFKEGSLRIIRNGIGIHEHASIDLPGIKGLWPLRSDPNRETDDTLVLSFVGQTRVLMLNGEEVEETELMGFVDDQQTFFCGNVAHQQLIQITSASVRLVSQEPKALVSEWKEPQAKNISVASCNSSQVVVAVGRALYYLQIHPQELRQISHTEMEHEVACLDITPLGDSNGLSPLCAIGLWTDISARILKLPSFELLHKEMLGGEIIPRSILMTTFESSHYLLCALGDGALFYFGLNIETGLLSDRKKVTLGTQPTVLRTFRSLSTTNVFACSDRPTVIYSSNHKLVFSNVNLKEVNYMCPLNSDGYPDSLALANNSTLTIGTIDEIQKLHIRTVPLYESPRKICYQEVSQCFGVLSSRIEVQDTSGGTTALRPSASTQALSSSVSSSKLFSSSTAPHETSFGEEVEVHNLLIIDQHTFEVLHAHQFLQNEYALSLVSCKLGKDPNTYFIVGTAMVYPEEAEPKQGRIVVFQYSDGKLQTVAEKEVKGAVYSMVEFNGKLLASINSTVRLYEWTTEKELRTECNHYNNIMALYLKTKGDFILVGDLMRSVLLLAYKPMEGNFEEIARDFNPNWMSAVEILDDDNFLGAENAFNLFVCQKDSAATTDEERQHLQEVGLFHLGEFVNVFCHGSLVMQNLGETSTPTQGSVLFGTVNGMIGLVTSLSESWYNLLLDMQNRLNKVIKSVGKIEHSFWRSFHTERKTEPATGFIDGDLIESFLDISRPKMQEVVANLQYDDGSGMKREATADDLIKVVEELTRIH

SMILES | degradation of FKBP* [1, 4] | dose dependence of degradation of HA-tagged FKBP* ([1]; 293FT CRBN-WT or CRBN−/−, indicated dose, 4 hours) | mechanism of FKBP* degradation ([1]; 293FT CRBN-WT, 4 hour treatment after inhibitor pretreatment) | degradation of dTAG-KRAS alleles ([2]; G12C, G12D, G12V) | degradation of dTAG-KRAS alleles ([2]; G13D, Q61L, Q61R) | cell morphology [3] | degradation of HA-tagged FKBP* ([1]; 293FT CRBN-WT or CRBN−/−, indicated concentrations, 4 hours) | degradation of HA-tagged FKBP12WT (FKBP12WT) | FKBP* degradation as signal ratio (Nluc/Fluc) (FKBP* fused to Nluc)
CC[C@H](C(=O)N1CCCC[C@H]1C(=O)O[C@H](CCc1ccc(OC)c(OC)c1)c1cccc(OCC(=O)NCCCCCCOc2cccc3c2C(=O)N(C2CCC(=O)NC2=O)C3=O)c1)c1cc(OC)c(OC)c(OC)c1 (stereo partly shown) [dFKBP13] | CRBN-dependent degradation of FKBP* | dose- and CRBN-dependent degradation | CRBN- and proteasome-dependent degradation | potent degradation of WT and mutant KRAS alleles | potent degradation of WT and mutant KRAS alleles | morphologically revert back to the wild type (DMSO control) state |  |  | 
CC[C@H](C(=O)N1CCCC[C@H]1C(=O)O[C@H](CCc1ccc(OC)c(OC)c1)c1cccc(OCC(=O)NCCCOCCOCCOCCCNC(=O)COc2cccc3c2C(=O)N(C2CCC(=O)NC2=O)C3=O)c1)c1cc(OC)c(OC)c(OC)c1 (stereo partly shown) [dFKBP7] | CRBN-dependent degradation of FKBP* |  |  |  |  |  | CRBN-dependent degradation of FKBP* | not FKBPWT | effectively degrade FKBP* in a cereblon dependent manner
